Assay [1] relates to Wildtype Tte preQ1-I riboswitch 33-mer (RNA, riboswitch) CUGGGUCGCAGUAACCCCAGUUAACAAAACAAG
The assay is described as follows: ITC. To be noted: 100 mM NaCl, 4 mM MgCl2; 50 mM Na-HEPES pH 7.0, 25 °C.

Assay [2] deals with A13(2AP) Tte riboswitch (RNA, riboswitch, 2-aminopurine at 13) CUGGGUCGCAGUAACCCCAGUUAACAAAACAAG
The experiment in a line: ITC. To be noted: 100 mM NaCl, 4 mM MgCl2; 50 mM Na-HEPES pH 7.0, 25 °C.

For assay [3], the system named is A32(2AP) Tte riboswitch (RNA, riboswitch, 2-aminopurine at 32) CUGGGUCGCAGUAACCCCAGUUAACAAAACAAG
The experiment in a line: 2-aminopurine fluorescence titration, one-site fit. The following applies: 100 mM NaCl, 2 mM MgCl2; 50 mM Na-HEPES pH 7.0; 100 nM RNA.

For assay [4], the system named is Wildtype Tte riboswitch, biotinylated (SPR) (RNA, riboswitch) CUGGGUCGCAGUAACCCCAGUUAACAAAACAAG
The assay is described as follows: SPR, 1:1 kinetic fit. The following applies: 100 mM NaCl, 3 mM MgCl2; 10 mM Na-HEPES pH 7.4; immobilised RNA.

The subject of assay [5] is A10(2AP) Tte riboswitch (RNA, riboswitch, 2-aminopurine at 10) CUGGGUCGCAGUAACCCCAGUUAACAAAACAAG
The assay is described as follows: ITC. The following applies: 100 mM NaCl, 4 mM MgCl2; 50 mM Na-HEPES pH 7.0, 25 °C.

The test system of assay [6] is A14(2AP) Tte riboswitch (RNA, riboswitch, 2-aminopurine at 14) CUGGGUCGCAGUAACCCCAGUUAACAAAACAAG
The experiment in a line: 2-aminopurine fluorescence titration, one-site fit. The following applies: 100 mM NaCl, 2 mM MgCl2; 50 mM Na-HEPES pH 7.0; 100 nM RNA.

The subject of assay [7] is A32(2AP) Tte riboswitch (RNA, riboswitch, 2-aminopurine at 32) CUGGGUCGCAGUAACCCCAGUUAACAAAACAAG
The experiment in a line: ITC. To be noted: 100 mM NaCl, 4 mM MgCl2; 50 mM Na-HEPES pH 7.0, 25 °C.

The test system of assay [8] is A14(2AP) Tte riboswitch (RNA, riboswitch, 2-aminopurine at 14) CUGGGUCGCAGUAACCCCAGUUAACAAAACAAG
The assay is described as follows: ITC. To be noted: 100 mM NaCl, 4 mM MgCl2; 50 mM Na-HEPES pH 7.0, 25 °C.

Assay [9] has as its system A13(2AP) Tte riboswitch (RNA, riboswitch, 2-aminopurine at 13) CUGGGUCGCAGUAACCCCAGUUAACAAAACAAG
The experiment in a line: 2-aminopurine fluorescence titration, one-site fit. To be noted: 100 mM NaCl, 2 mM MgCl2; 50 mM Na-HEPES pH 7.0; 100 nM RNA.

Assay [10] deals with A10(2AP) Tte riboswitch (RNA, riboswitch, 2-aminopurine at 10) CUGGGUCGCAGUAACCCCAGUUAACAAAACAAG
The experiment in a line: 2-aminopurine fluorescence titration, one-site fit. To be noted: 100 mM NaCl, 2 mM MgCl2; 50 mM Na-HEPES pH 7.0; 100 nM RNA.

Molecules are shown by their SMILES.

`NCc1c[nH]c2nc(N)[nH]c(=O)c12`: the KD was 8.1 ± 0.9 nM in assay [1]; 21.6 ± 1.1 nM in assay [2]; 1.84 ± 0.08 × 10^-9 M in [4]; 12.6 ± 2.0 nM in [5]; 10.5 ± 2.4 nM in assay [7]; 19.3 ± 0.8 nM in [8]. Besides, the “apparent KD” value in assay [3] was 12.3 ± 1.4 nM; in [6], 34.2 ± 1.6 nM; in [9] it was 25.7 ± 2.4 nM; in assay [10], 13.9 ± 0.7 nM.

The values above are taken from paper PMC7641330 (2020).
